Assay results reported in PubChem BioAssay (NCI).
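Each compound was tested at five concentrations against cells in 96-well plates for 48 hours. Abbreviation: GI50, concentration required for 50% inhibition of growth. TGI: total growth inhibition.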

How the values were obtained:
Assay in all cases: NCI anticancer screen, dose series, 48 h; in the data active means GI50 below about 0.43 µM; inactive means the rest
SK-OV-3 ovarian = test system: SK-OV-3 ovarian
NCI/ADR-RES ovarian = test system: NCI/ADR-RES ovarian
NCI-H460 lung = test system: NCI-H460 lung
SF-295 CNS = test system: SF-295 CNS
MALME-3M melanoma = test system: MALME-3M melanoma
SN12C renal = test system: SN12C renal
RXF 393 renal = test system: RXF 393 renal
HCT-116 colon = test system: HCT-116 colon
HS 578T breast = test system: HS 578T breast
PC-3 prostate = test system: PC-3 prostate
UACC-257 melanoma = test system: UACC-257 melanoma
MDA-MB-435 = test system: MDA-MB-435
COLO 205 colon = test system: COLO 205 colon
RPMI-8226 leukemia = test system: RPMI-8226 leukemia
SK-MEL-28 melanoma = test system: SK-MEL-28 melanoma
A549 NSCLC = test system: A549 NSCLC
HOP-62 NSCLC = test system: HOP-62 NSCLC
M14 melanoma = test system: M14 melanoma
U251 CNS = test system: U251 CNS
KM12 colon = test system: KM12 colon
CAKI-1 renal = test system: CAKI-1 renal
MDA-MB-231 breast = test system: MDA-MB-231 breast
K-562 leukemia = test system: K-562 leukemia
OVCAR-4 ovarian = test system: OVCAR-4 ovarian
HT29 colon = test system: HT29 colon
UO-31 renal = test system: UO-31 renal
SNB-75 CNS = test system: SNB-75 CNS
OVCAR-5 ovarian = test system: OVCAR-5 ovarian
IGROV1 ovarian = test system: IGROV1 ovarian
T-47D breast = test system: T-47D breast
SK-MEL-2 melanoma = test system: SK-MEL-2 melanoma
NCI-H226 lung = test system: NCI-H226 lung
786-0 renal = test system: 786-0 renal
EKVX NSCLC = test system: EKVX NSCLC
SK-MEL-5 melanoma = test system: SK-MEL-5 melanoma
SF-539 CNS = test system: SF-539 CNS
SR leukemia = test system: SR leukemia
NCI-H23 lung = test system: NCI-H23 lung
HCC-2998 colon = test system: HCC-2998 colon
SW-620 colon = test system: SW-620 colon
HL-60(TB) leukemia = test system: HL-60(TB) leukemia
DU-145 prostate = test system: DU-145 prostate
TK-10 renal = test system: TK-10 renal
A498 renal = test system: A498 renal
MOLT-4 leukemia = test system: MOLT-4 leukemia
SNB-19 CNS = test system: SNB-19 CNS
NCI-H522 lung = test system: NCI-H522 lung
LOX IMVI melanoma = test system: LOX IMVI melanoma
OVCAR-8 ovarian = test system: OVCAR-8 ovarian
MCF7 breast = test system: MCF7 breast
SF-268 CNS = test system: SF-268 CNS
UACC-62 melanoma = test system: UACC-62 melanoma
HCT-15 colon = test system: HCT-15 colon
ACHN renal = test system: ACHN renal
CCRF-CEM leukemia = test system: CCRF-CEM leukemia
BT-549 breast = test system: BT-549 breast
OVCAR-3 ovarian = test system: OVCAR-3 ovarian

c1ccc(Oc2cnc3ccccc3n2)cc1
> 100 µM: TGI (SK-OV-3 ovarian) | TGI (NCI/ADR-RES ovarian) | TGI (NCI-H460 lung) | TGI (SF-295 CNS) | TGI (MALME-3M melanoma) | TGI (SN12C renal) | TGI (RXF 393 renal) | TGI (HCT-116 colon) | TGI (HS 578T breast) | TGI (PC-3 prostate) | TGI (UACC-257 melanoma) | TGI (MDA-MB-435) | TGI (COLO 205 colon) | TGI (RPMI-8226 leukemia) | TGI (SK-MEL-28 melanoma) | TGI (A549 NSCLC) | TGI (HOP-62 NSCLC) | TGI (M14 melanoma) | TGI (U251 CNS) | TGI (KM12 colon) | TGI (MDA-MB-231 breast) | TGI (K-562 leukemia) | TGI (OVCAR-4 ovarian) | TGI (HT29 colon) | TGI (UO-31 renal) | TGI (SNB-75 CNS) | TGI (OVCAR-5 ovarian) | TGI (IGROV1 ovarian) | TGI (T-47D breast) | TGI (SK-MEL-2 melanoma) | TGI (NCI-H226 lung) | TGI (786-0 renal) | TGI (EKVX NSCLC) | TGI (SK-MEL-5 melanoma) | TGI (SF-539 CNS) | TGI (SR leukemia) | TGI (NCI-H23 lung) | TGI (HCC-2998 colon) | TGI (SW-620 colon) | TGI (HL-60(TB) leukemia) | TGI (DU-145 prostate) | TGI (TK-10 renal) | TGI (A498 renal) | TGI (MOLT-4 leukemia) | TGI (SNB-19 CNS) | TGI (NCI-H522 lung) | TGI (LOX IMVI melanoma) | TGI (OVCAR-8 ovarian) | TGI (MCF7 breast) | TGI (SF-268 CNS) | TGI (UACC-62 melanoma) | TGI (HCT-15 colon) | TGI (ACHN renal) | TGI (CCRF-CEM leukemia) | TGI (OVCAR-3 ovarian)
68.3 µM: TGI (BT-549 breast)
inactive: GI50 (SK-OV-3 ovarian) > 100 µM | GI50 (NCI/ADR-RES ovarian) > 100 µM | GI50 (NCI-H460 lung) > 100 µM | GI50 (SF-295 CNS) 36.4 µM | GI50 (MALME-3M melanoma) > 100 µM | GI50 (SN12C renal) > 100 µM | GI50 (RXF 393 renal) 31.9 µM | GI50 (HCT-116 colon) > 100 µM | GI50 (HS 578T breast) 30.3 µM | GI50 (PC-3 prostate) > 100 µM | GI50 (UACC-257 melanoma) > 100 µM | GI50 (MDA-MB-435) > 100 µM | GI50 (COLO 205 colon) > 100 µM | GI50 (RPMI-8226 leukemia) > 100 µM | GI50 (SK-MEL-28 melanoma) > 100 µM | GI50 (A549 NSCLC) > 100 µM | GI50 (HOP-62 NSCLC) > 100 µM | GI50 (M14 melanoma) > 100 µM | GI50 (U251 CNS) > 100 µM | GI50 (KM12 colon) > 100 µM | GI50 (CAKI-1 renal) 10.2 µM | GI50 (MDA-MB-231 breast) > 100 µM | GI50 (K-562 leukemia) > 100 µM | GI50 (OVCAR-4 ovarian) > 100 µM | GI50 (HT29 colon) > 100 µM | GI50 (UO-31 renal) 39.1 µM | GI50 (SNB-75 CNS) 33.8 µM | GI50 (OVCAR-5 ovarian) > 100 µM | GI50 (IGROV1 ovarian) 74.5 µM | GI50 (T-47D breast) 75.5 µM | GI50 (SK-MEL-2 melanoma) > 100 µM | GI50 (NCI-H226 lung) 28.1 µM | GI50 (786-0 renal) > 100 µM | GI50 (EKVX NSCLC) 77.4 µM | GI50 (SK-MEL-5 melanoma) 46.3 µM | GI50 (SF-539 CNS) 92.3 µM | GI50 (SR leukemia) 55.3 µM | GI50 (NCI-H23 lung) > 100 µM | GI50 (HCC-2998 colon) > 100 µM | GI50 (SW-620 colon) > 100 µM | GI50 (HL-60(TB) leukemia) 18.7 µM | GI50 (DU-145 prostate) > 100 µM | GI50 (TK-10 renal) 53.9 µM | GI50 (A498 renal) 14.7 µM | GI50 (MOLT-4 leukemia) 36.3 µM | GI50 (SNB-19 CNS) > 100 µM | GI50 (NCI-H522 lung) > 100 µM | GI50 (LOX IMVI melanoma) > 100 µM | GI50 (OVCAR-8 ovarian) > 100 µM | GI50 (MCF7 breast) > 100 µM | GI50 (SF-268 CNS) 64 µM | GI50 (UACC-62 melanoma) 85.3 µM | GI50 (HCT-15 colon) > 100 µM | GI50 (ACHN renal) > 100 µM | GI50 (CCRF-CEM leukemia) > 100 µM | GI50 (BT-549 breast) 12 µM | GI50 (OVCAR-3 ovarian) > 100 µM
50 µM: TGI (CAKI-1 renal)
